Measurements published in US12358983B2, “Combination of anti CD19 antibody with a BCL-2 inhibitor and uses thereof” (Incyte Corporation, priority 2016, dated 2025).

Tests used:
[1] = tested on: MEC-1 cells; assay: Cytotoxicity (ADCC assay with NK effector cells) of MOR00208 and venetoclax alone and in combination in MEC-1 cells; assay type: cell-based
Description: Cell lines tested: MEC-1 cells (DSMZ# ACC497). Culture conditions of cell lines used are according to supplier's information. Cell Medium: lscove's Modified Dulbecco's Medium (IMDM), Invitrogen, Cat No.: 31980; RPMI1640, Invitrogen, Cat No.: 31870; GlutaMAX, Invitrogen, CAT No.: 35050; FCS: Sigma CAT No.: F7524 LOT No.: 111M3396. NKs: RPMI1640, with GlutaMAX, Invitrogen, Cat No.: 31870, 10% FCS; Biocoll: Biochrome AG CAT No.: L6115 LOT No.: 0034D; MACS NK cell isolation kit: Miltenyi Biotec CAT No.: 130-092-657 LOT No.: 5150402327; venetoclax: Selleck Chem. CAT No.: S8048 LOT No.: S804803; FCS: Sigma CAT No.: F7524 LOT No.: 111M3396; and RefmAb33 (anti-RSV) with same Fc region as MOR00208.
The cytotoxic potential of MOR00208 and venetoclax alone and in combination were tested in the MEC-1 cell line (CLL). Target cell killing is measured using the following parameters: venetoclax mono treatment at concentrations of 3 μM, 6.5 μM, and 10 μM; MOR00208 mono treatment at concentrations of 0.01 pM, 0.1 pM, 1 pM, 10 pM, 100 pM and 10 nM, and the combination treatment of the listed venetoclax and MOR00208 concentrations. The following are used as controls: RefnnAb33, NK cells alone, MEC-1 cells alone or DMSO. In the venetoclax mono groups as well as in the MOR00208+venetoclax combination groups, target cells were pretreated with venetoclax or with DMSO control for 24 hours followed by removal of the dead cells prior to the ADCC assay. A dead cell removal kit was used to remove cells killed by the cytotoxic effect of venetoclax. The dead cell removal kit was implemented to mimick the removal of dead cells that also occurs in vivo and to prevent false negative interference of the dead cells with the subsequent ADCC assay. For the ADCC assay, target cells are counted and stained using CFSE at a final concentration of 1 μg/mL. For the control group, i.e. DMSO treated target cells, the effector: target (E:T) cell ratio was adjusted to 2:1, i.e. 1×10E6/nnL effector cells (NK cells) and 5×10E5/mL target cells (MEC-1 cells). […] The ADCC assays were performed as follows: using 96 well plates, 100 μL of MEC-1 target cell suspension was added per well, followed by 100 μL NK effector cell suspension per well. Mixed cell suspensions were centrifuged and resuspended in 100 μL antibody containing medium or the according control solution. The antibodies were diluted in a range of 10 nM-0.01 pM (corresponds to 1.5 μg/mL-1.5 pg/mL) in medium. The ADCC assays were incubated for 2 hours in a CO2-incubator at 37° C. After 10 minutes incubation on ice, 50 μL DAPI solution was added to each well (final concentration 1 μg/mL) and incubated for additional 10 minutes on ice. The ADCC measurements were performed on a BD FACSVerse instrument. Dead target cells were identified as DAPI positive cells.
Combination Index (CI) calculations are completed in order to determine synergy of the combination of the exemplified anti-CD19 antibody and venetoclax as compared to MOR00208 and venetoclax alone. Such calculations are described in Ting-Chao Chou, Theoretical Basis, Experimental Design, and Computerized Simulation of Synergism and Antagonism in Drug Combination Studies, Pharmacol Rev 58:621-681 (2006), which is incorporated by reference in its entirety and Chou TC, Talalay P, Quantitative analysis of dose-effect relationships: the combined effects of multiple drugs or enzyme inhibitors. Adv Enzyme Regul 22: 27-55 (1984), which is incorporated by reference in its entirety. The methods of Chou-Talalay are carried out using the CI-isobol method.
The median-effect equation models the effect of an inhibitor (such as a drug) as Fa/Fu=(D/D50)^m, where D is the dose, Fa and Fu is the fraction of the system affected and unaffected by the dose D (Fa+Fu=1); D50 is the dose producing the median effect (e.g. IC50, ED50, LD50). The constant m determines the shape of the dose-effect curve.

[2] = tested on: TOLEDO human lymphoma cell tumors; assay: Subcutaneous human lymphoma cell xenograft model in SCID mice; conditions: MOR00208 11 mg/kg i.p. twice weekly
Description: Toledo cell line and culture medium were purchased and provided by Oncodesign. […] The cells are adherent to plastic flasks.
A statistical test (analysis of variance, ANOVA) was performed to test for homogeneity between groups. MOR208 was injected intraperitoneally (IP) into the peritoneal cavity of mice. Combined substance was administered by oral gavage (per os, PO) via a gavage tube.
The treatment schedule initiated at D23 was as follows:
Animals from group 1 received one daily PO administration of PEP and one IP injection twice a week of PBS.
Animals from group 4 received one IP injection of MOR208 at 11 mg/kg/inj on D23, D27, D30, D34, D37 and D41 followed by a single IP injection of MOR208 at 11 mg/kg/inj on D48 (twice a week).
The viability and behavior were recorded every day. Body weights and tumor volume were measured twice a week. The length and width of the tumor were measured twice a week with calipers and the volume of the tumor was estimated by the formula:

For “MOR00208: anti-CD19 antibody; heavy chain SEQ ID NO: 14, light chain SEQ ID NO: 15”, the “Theoretical MOR00208 Dose” value ([1]; Exp 2, same effect as MOR00208 1.50E−03 μg/mL + venetoclax 10.0 μM) was “* 1.00E+03^ μg/mL”, the “Theoretical MOR00208 Dose” value ([1]; Exp 2, same effect as MOR00208 1.50E−04 μg/mL + venetoclax 3.0 μM) was 0.000155 µg/mL and the “Theoretical MOR00208 Dose” value ([1]; Exp 2, same effect as MOR00208 1.50E−04 μg/mL + venetoclax 6.5 μM) was 0.000591 µg/mL. For the same substance, the “Theoretical MOR00208 Dose” value ([1]; Exp 2, same effect as MOR00208 1.50E−04 μg/mL + venetoclax 10.0 μM) was 0.00289 µg/mL, the “Theoretical MOR00208 Dose” value ([1]; Exp 2, same effect as MOR00208 1.50E−05 μg/mL + venetoclax 3.0 μM) was 1.94e-05 µg/mL and the “Theoretical MOR00208 Dose” value ([1]; Exp 2, same effect as MOR00208 1.50E−05 μg/mL + venetoclax 6.5 μM) was 0.000109 µg/mL. For the same substance, the “Theoretical MOR00208 Dose” value ([1]; Exp 2, same effect as MOR00208 1.50E−05 μg/mL + venetoclax 10.0 μM) was 0.000725 µg/mL, the “Theoretical MOR00208 Dose” value ([1]; Exp 2, same effect as MOR00208 1.50E−06 μg/mL + venetoclax 6.5 μM) was 2.9e-05 µg/mL and the “Theoretical MOR00208 Dose” value ([1]; Exp 2, same effect as MOR00208 1.50E−06 μg/mL + venetoclax 10.0 μM) was 0.000145 µg/mL. The “Actual MOR00208 Effect” value ([1]; Exp 3, MOR00208 1.50E+00 μg/mL) was 74.8 % dead cells, the “Actual MOR00208 Effect” value ([1]; Exp 3, MOR00208 1.50E−02 μg/mL) was 69.1 % dead cells and the “Actual MOR00208 Effect” value ([1]; Exp 3, MOR00208 1.50E−03 μg/mL) was 45.3 % dead cells. For the same substance, the “Actual MOR00208 Effect” value ([1]; Exp 3, MOR00208 1.50E−04 μg/mL) was 26.6 % dead cells, the “Actual MOR00208 Effect” value ([1]; Exp 3, MOR00208 1.50E−05 μg/mL) was 18.9 % dead cells and the “Actual MOR00208 Effect” value ([1]; Exp 3, MOR00208 1.50E−06 μg/mL) was 11.8 % dead cells. For the same substance, the “Theoretical MOR00208 Dose” value ([1]; Exp 3, same effect as MOR00208 1.50E+00 μg/mL + venetoclax 3.0 μM) was “* 1.00E+03^ μg/mL”, the “Theoretical MOR00208 Dose” value ([1]; Exp 3, same effect as MOR00208 1.50E+00 μg/mL + venetoclax 6.5 μM) was “* 1.00E+03^ μg/mL” and the “Theoretical MOR00208 Dose” value ([1]; Exp 3, same effect as MOR00208 1.50E+00 μg/mL + venetoclax 10.0 μM) was “* 1.00E+03^ μg/mL”. For the same substance, the “Theoretical MOR00208 Dose” value ([1]; Exp 3, same effect as MOR00208 1.50E−02 μg/mL + venetoclax 3.0 μM) was 0.279 µg/mL, the “Theoretical MOR00208 Dose” value ([1]; Exp 3, same effect as MOR00208 1.50E−02 μg/mL + venetoclax 6.5 μM) was “* 1.00E+03^ μg/mL” and the “Theoretical MOR00208 Dose” value ([1]; Exp 3, same effect as MOR00208 1.50E−02 μg/mL + venetoclax 10.0 μM) was “* 1.00E+03^ μg/mL”. For the same substance, the “Theoretical MOR00208 Dose” value ([1]; Exp 3, same effect as MOR00208 1.50E−03 μg/mL + venetoclax 3.0 μM) was 0.00152 µg/mL, the “Theoretical MOR00208 Dose” value ([1]; Exp 3, same effect as MOR00208 1.50E−03 μg/mL + venetoclax 6.5 μM) was 0.00652 µg/mL and the “Theoretical MOR00208 Dose” value ([1]; Exp 3, same effect as MOR00208 1.50E−03 μg/mL + venetoclax 10.0 μM) was “* 1.00E+03^ μg/mL”. The “Theoretical MOR00208 Dose” value ([1]; Exp 3, same effect as MOR00208 1.50E−04 μg/mL + venetoclax 3.0 μM) was 0.000218 µg/mL, the “Theoretical MOR00208 Dose” value ([1]; Exp 3, same effect as MOR00208 1.50E−04 μg/mL + venetoclax 6.5 μM) was 0.000602 µg/mL and the “Theoretical MOR00208 Dose” value ([1]; Exp 3, same effect as MOR00208 1.50E−04 μg/mL + venetoclax 10.0 μM) was 0.0042 µg/mL. The “Theoretical MOR00208 Dose” value ([1]; Exp 3, same effect as MOR00208 1.50E−05 μg/mL + venetoclax 3.0 μM) was 2.9e-05 µg/mL, the “Theoretical MOR00208 Dose” value ([1]; Exp 3, same effect as MOR00208 1.50E−05 μg/mL + venetoclax 6.5 μM) was 0.000157 µg/mL and the “Theoretical MOR00208 Dose” value ([1]; Exp 3, same effect as MOR00208 1.50E−05 μg/mL + venetoclax 10.0 μM) was 0.000983 µg/mL. For the same substance, the “Theoretical MOR00208 Dose” value ([1]; Exp 3, same effect as MOR00208 1.50E−06 μg/mL + venetoclax 6.5 μM) was 2.67e-05 µg/mL, the “Theoretical MOR00208 Dose” value ([1]; Exp 3, same effect as MOR00208 1.50E−06 μg/mL + venetoclax 10.0 μM) was 0.000371 µg/mL and the “Effect in ADCC cell killing assays (in words)” value ([1]; very low doses of MOR00208) was “little or no effect”. For the same substance, the “Median Tumor Doubling Time” value [2] was 8.0 days, the “Median Survival (Days Post-Randomization)” value ([2]; humane endpoint tumor volume 2000 mm3) was 25.3 days and the “Median % Increase in Doubling Time (IDT)” value ([2]; vs. PEP/PBS Control) was 18%. For the same substance, the “Median % Increase in Lifespan (ILS)” value ([2]; vs. PEP/PBS Control) was 20%.
